US5041535A, “Antileukemic and immunostimulant peptides” (Richter Gedeon Vegyeszeti Gyar Rt., priority 1986, dated 1991)
Square brackets hold non-standard residues; d marks the D form. Peptide text beside a SMILES is read from it. pGlu = O=C1CC[C@@H](C(=O)O)N1

Experiments:
[1] = system: human K-562 erythroleukaemical cell-line; experiment: Inhibition of the proliferation of tumor cells (K-562); assay type: cell-based; conditions: 72nd hour after treatment, percentage of the control
Protocol: In the test human K-562 erythroleukaemical cell-line is used (Karolinska Institute, Stockholm). Incubation is carried out in a nutrient medium designated RPMI-1640 (manufactured by Flow, Great Britain) comprising 10% of foetal calf serum, at a temperature of 37° C., in a humidified incubator containing 3% of carbon dioxide, in plastic dishes. Every point of measurement corresponds to the average of the data measured in three dishes, each. At the beginning of the test the dilution amounts to 0.5×10^5 cells/ml. Treatment is carried out 24 hours after dilution in a manner that the medium is not changed after the treatment. The cells are counted for 96 hours after dilution every 24th hour wit the aid of a Buerker chamber.
Under the effect of the peptide in the 24th hour after treatment the cell number stagnates and later it increases to a very small extent. […] The tumor-cell division inhibiting effect of the new peptides is summarized in Table 1 (72 hours after treatment). The rate of inhibition is expressed in the percentage of the control. It clearly appears from the data of the Table that the tested peptides inhibit the proliferation of human K-562 erythroleukaemic cells.

[2] = system: lymphocytes inhibited by Azathioprine; experiment: E-rosetta test inhibited by Azathioprine; assay type: cell-based
Protocol: Inhibition of the proliferation of T-lymphocytes is tested in the E-rosetta test inhibited by Azathioprine [6-(1-methyl-4-nitroimidazole-5-yl-thio)-purine; Thymus 1, 195 (1980)].
To 200 μl of a healthy lymphocyte cell-suspension 500 μl/ml of Azathioprine and 200 μl of a separate dilution of the test compound in HBBS buffer (manufacturer: Flow, Great Britain) are added (concentration range: 10^-3 to […]). The mixture is incubated at a temperature of 37° C. in air containing 5% of carbon dioxide for 60 minutes, whereupon 200 μl of a 1% sheep erythrocyte suspension are added. The mixture thus-obtained is centrifuged at 1,000 r.p.m. for 5 minutes, the supernatant is removed by decanting and in the suspension the lymphocytes forming E-rosetta are counted under a microscope from at least 400 cells.
Under the effect of the peptides the E-rosetta forming activity of the lymphocytes inhibited by Azathioprine increases to different extent. […] It appears from the data of Table 2 that the tested peptides increase the E-rosetta forming capacity of inhibited lymphocytes, i.e. the peptides of the present invention show immunostimulant effect.

[3] = system: antibody production inhibited by cyclophosphamide; experiment: Effect on antibody production in mice treated with cyclophosphamide; assay type: in vivo, CELP mice; conditions: cyclophosphamide 100 mg/kg i.p., titer on 6th day
Protocol: The effect on in vivo antibody production is tested on CELP mice treated with a 100 mg/kg body weight dose of cyclophosphamide {2-[bis-(2-chloroethyl)-amino]-tetrahydro-2H-1,3,2-oxaza -phosphorine-2-oxide; method: Z. Naturforsch. 35B, 1476 (1980)}. The mice are intraperitoneally immunized with a 1% sheep erythrocyte suspension previously washed three times with a 0.9% sodium chloride solution after 10 minutes of centrifuging at 2,500 r.p.m. Simultaneously with immunization carried out on the 0. day, the activity of the immune system is suppressed by means of treatment with a 100 mg/kg i.p. does of cyclophosphamide. On the 3rd day of the test the peptides are administered to the animals intraperitoneally in a dose of 5, 50 and occasionally 100 mg/kg respectively. On the 6th day of the test blood is taken retroorbitally from the mice and the anti-sheep erythrocyte titer of the serum is determined. […] The effect of the peptides is expressed as percentage of the relief of inhibition (G %).

[4] = system: inflammation induced by oxozolone; experiment: Dermatitis test induced with oxazolone; assay type: in vivo, CFLP mice; conditions: 24th hour after treatment, ear weight increase
Protocol: In this test a modified pharmacological model of D. P. Evans et al. [Br. J. Pharmac. 43, 403-488 (1971)] is used.
The abdominal skin of male CFLP mice weighing 20-22 g is painted after the removal of the hair with 0.1 ml of a 2% solution of oxazolon (4-ethoxymethyl-2-phenyl-oxazoline, manufacturer Sigma) in sunflower oil. On the right ear of the test animals 7 days after sensitization (painting) inflammatory reaction is induced with the aid of 10 μl of a 2% acetonous oxazolone solution and simultaneously the animals are treated with a 1 or 2 mg/kg, respectively, i.p. does of the test compound. The test compound is dissolved in a physiological sodium chloride solution in such a concentration that the active ingredient content corresponding to the dose should be dissolved in a volume of 0.5 ml/10 g animal body weight.
The antiinflammatory effect is determined as follows: the animals are sacrificed in the 24th hour after treatment, whereupon the right and left ears are cut off. The percentual weight increase of the right ear related to the left ear is characteristic of the rate of inflammation induced during the test, while the percentual reduction of weight increase of the treated animals related to the untreated control is proportional to the antiinflammatory effect. In Table 4 the reduction of weight increase (antiinflammatory effect) achieved by the test compounds is disclosed, as the percentage of the untreated control.

[5] = peptide 5 mg/kg i.p. on 3rd day
[6] = peptide 50 mg/kg i.p. on 3rd day

Row | Compound | Inhibition of the proliferation of K-562 cells, inhibition (c %) ([1]; peptide 10/ug/ml) | Relief of inhibition (R %) of E-rosetta forming activity ([2]; peptide 10^-3 mole/l) | Relief of inhibition (R %) of E-rosetta forming activity ([2]; peptide 10^-5 mole/l) | Relief of inhibition (R %) of E-rosetta forming activity ([2]; peptide 10^-7 mole/l) | Relief of inhibition (R %) of E-rosetta forming activity ([2]; peptide 10^-9 mole/l) | Relief of inhibition (R %) of E-rosetta forming activity ([2]; peptide 10^-11 mole/l) | Inhibition of the proliferation of K-562 cells, inhibition (c %) ([1]; peptide 1/ug/ml) | Restoration of primary immune answer, G % [3, 5] | Restoration of primary immune answer, G % [3, 6] | Inhibition of inflammation induced by oxozolone, inhibition as % of control ([4]; 1 mg/kg i.p.) | Restoration of primary immune answer, G % ([3]; peptide 100 mg/kg i.p. on 3rd day) | Inhibition of inflammation induced by oxozolone, inhibition as % of control ([4]; 2 mg/kg i.p.)
1 | CC(C)[C@H](NC(=O)[C@H](CC(=O)O)NC(=O)[C@H](CCCCN)NC(=O)[C@@H](N)CCCN=C(N)N)C(=O)N[C@@H](Cc1ccc(O)cc1)C(=O)O [A, Arg--Lys--Asp--Val--Tyr, reference compound] (H-RKDVY-OH) | 32% | 31.7% | 29.3% | 38.7% | 30.0% | 19.4% | – | – | – | – | – | –
2 | CC(C)[C@H](NC(=O)[C@H](CC(=O)O)NC(=O)[C@H](CCCCN)NC(=O)[C@@H](N)CCCNC(=N)N)C(=O)O [B, Arg--Lys--Asp--Val, reference compound] (H-RKDV-OH) | 4% | 35.4% | 35.4% | 46.4% | 32.5% | 34.0% | – | – | – | – | – | –
3 | NCCCC[C@H](NC(=O)[C@H](CCC(=O)O)NC(=O)[C@@H]1CCC(=O)N1)C(N)=O [Peptide 2, Glp-Glu-Lys-NH2] ([pGlu]-Glu-Lys-NH2) | 55% | 25.4% | 20.2% | 31.7% | 24.3% | 37.1% | 40% | 23.0% | 3.0% | – | – | –
4 | N=C(N)NCCC[C@H](N)C(=O)N[C@@H](CCCCN)C(=O)N[C@@H](CCC(=O)O)C(N)=O [Peptide 3, Arg-Lys-Glu-NH2] (H-Arg-Lys-Glu-NH2) | 52% | 24.3% | 22.6% | 15.6% | 24.8% | 17.0% | 40% | 78.1% | 47.6% | – | – | –
5 | N=C(N)NCCC[C@H](N)C(=O)N[C@@H](CCCCN)C(=O)N[C@@H](CC(=O)O)C(N)=O [Peptide 4, Arg-Lys-Asp-NH2] (H-Arg-Lys-Asp-NH2) | 50% | 29.7% | 30.0% | 18.7% | 23.9% | 18.5% | 25% | – | – | 27% | 28.5% | –
6 | N=C(N)NCCC[C@H](N)C(=O)N[C@@H](CCCCN)C(=O)N[C@@H](CCC(=O)O)C(=O)O [Peptide 5, Arg-Lys-GIu-OH] (H-Arg-Lys-Glu-OH) | 48% | 24.5% | 24.6% | 24.7% | 24.0% | 27.5% | 40% | 61.5% | 76.9% | – | – | –
7 | CC(C)C[C@H](N)C(=O)N[C@H](C(=O)N[C@@H](C)C(=O)O)C(C)C [Peptide 7, Leu-VaI-AIa-OH] (H-Leu-Val-Ala-OH) | 52% | – | – | – | – | – | 38% | 73.3% | 100.0% | – | – | –
8 | NCCCC[C@H](NC(=O)[C@H](CCCCN)NC(=O)[C@H](CCC(=O)O)NC(=O)[C@@H](N)CCCCN)C(=O)O [Peptide 10, Lys-GIu-Lys-Lys-OH] (H-KEKK-OH) | 40% | 22.9% | 16.3% | 25.2% | 21.1% | 26.6% | 28% | 15.5% | 37.7% | 22% | – | 79%
9 | CC(C)C[C@H](NC(=O)[C@@H](N)CCC(=O)O)C(=O)N[C@H](C(=O)N[C@@H](C)C(=O)O)C(C)C [Peptide 13, GIu-Leu-VaI-AIa-OH] (H-ELVA-OH) | 65% | – | – | – | – | – | 55% | 20.9% | 32.8% | 40% | – | –
10 | CC(C)C[C@H](N)C(=O)N1CCC[C@H]1C(=O)N[C@@H](C)C(=O)NCC(=O)O [Peptide 14, Leu-Pro AIa-Gly-OH] (H-LPAG-OH) | 70% | – | – | – | – | – | 45% | 34.0% | 56.8% | 55% | – | –
